Results from EPA's ToxValDB 9.5 (doi:10.2903/j.efsa.2019.5821).
Values after ≈ are worked out from the molar mass of the structure shown.

Key:
[1] = test system: Rattus norvegicus; conditions: for NOAEL: body weight
[2] = test system: Oncorhynchus mykiss; conditions: acute; duration: 96 hours; mortality
[3] = test system: Oryctolagus sp.; conditions: developmental; development
[4] = test system: Typhlodromus pyri; assay: LR50; higher = less toxic; conditions: not reported; mortality
[5] = test system: Apis mellifera; conditions: acute, mortality
[6] = test system: Folsomia candida; conditions: chronic/long-term; duration: 28 days; mortality
[7] = test system: Tagia sp.; conditions: chronic/long-term; duration: 56 days; reproduction
[8] = test system: Mus musculus; conditions: chronic; duration: 18 months; body weight
[9] = test system: Colinus virginianus
[10] = test system: Daphnia magna; conditions: chronic/long-term; duration: 21 days; reproduction

## Cn1cc(C(N)=O)c(C(F)F)n1 [3-(Difluoromethyl)-1-methyl-1H-pyrazole-4-carboxamide]
[1]; short-term, duration: 28 days
  NOAEL: 37.4 mg/kg-day

## Cn1cc(C(=O)O)c(C(F)F)n1 [3-(Difluoromethyl)-1-methyl-1H-pyrazole-4-carboxylic acid]
[2]
  LC50: > 100 µg/mL
[3]
  NOAEL: 250 mg/kg-day

## CON(C(=O)c1cn(C)nc1C(F)F)C(C)Cc1c(Cl)cc(Cl)cc1Cl (configuration not stated) [Pydiflumetofen]
[4]
  LR50: > 408 g/ha
[5]; dermal
  LD50: > 100 µg/piece
[5]; oral, unspecified
  LD50: > 116 µg/piece
[6]
  NOEC: 186 mg/kg
[7]
  NOEC: 15.9 mg/kg
[8]
  NOAEL: 9.2 mg/kg-day
[9]; acute, oral, diet, mortality
  LC50: > 1260 mg/kg-day
[9]; acute, oral, mortality
  LD50: 3780 mg/kg-day
[9]; reproduction developmental
  NOEC: 90.1 mg/kg-day
[2]
  LC50: 0.18 µg/mL (≈ 0.422 µM)
[1]; acute, oral, mortality
  LD50: > 5000 mg/kg-day
[1]; reproduction developmental
  NOAEL: 30 mg/kg-day
[3]
  NOAEL: 10 mg/kg-day
[10]
  NOEC: 0.042 mg/L
